Measurements as given in patent publication US9926267B2, “Covalent inhibitors of K-Ras G12C” (Araxes Pharma LLC, priority 2013, dated 2018).

Biological target: T1, KRAS G12C 1-169, his-tagged protein, GDP-loaded (Homo sapiens, UniProt P01116, G12C)
T1 construct: KRAS G12C 1-169, his-tagged protein, GDP-loaded
Experiment: Biochemical assay: covalent binding to KRAS G12C, measured by mass spectrometry
Protocol: Test compounds were prepared as 10 mM stock solutions in DMSO (Fisher cat#BP-231-100). KRAS G12C 1-169, his-tagged protein, GDP-loaded was diluted to 2 μm in buffer (20 mM Hepes, 150 mM NaCl, 1 mM MgCl2). Compounds were tested for activity as follows:
Compounds were diluted to 50× final test concentration in DMSO in 96-well storage plates. Compound stock solutions were vortexed before use and observed carefully for any sign of precipitation. Dilutions were as follow: • For 100 μM final compound concentration, compounds were diluted to 5000 μM (5 μl 10 mM compound stock+5 μl DMSO and mixed well by pipetting. • For 30 μM final compound concentration, compounds were diluted to 1500 μM (3 μl 10 mM compound stock+17 μl DMSO) and mixed well by pipetting. • For […] final compound concentration, compounds were diluted to 500 μM (2 μl 10 mM compound stock+38 μl DMSO) and mixed well by pipetting. 49 μl of the stock protein solution was added to each well of a 96-well PCR plate (Fisher cat#1423027). 1 μl of the diluted 50× compounds were added to appropriate wells in the PCR plate using 12-channel pipettor. Reactions were mixed carefully and thoroughly by pipetting up/down with a 200 μl multi-channel pipettor. The plate was sealed well with aluminum plate seal, and stored in a drawer at room temperature for 2 hrs or 24 hrs. 5 μl of 2% formic acid (Fisher cat#A117) in DI H2O was then added to each well followed by mixing with a pipette. The plate was then resealed with aluminum seal and stored on dry ice until analyzed as described below.
The above described assays were analyzed by mass spectrometry according to the following procedure:
The MS instrument is set to positive polarity, 2 GHz resolution, and low mass (1700) mode and allowed to equilibrate for 30 minutes. The instrument is then calibrated, switched to acquisition mode and the appropriate method loaded.
After another 30 minute equilibration time, a blank batch (i.e., buffer) is run to ensure equipment is operating properly. The samples are thawed at 37° C. for 10 minutes, briefly centrifuged, and transfer to the bench top. Wells A1 and H12 are spiked with 1 uL 500 uM internal standard peptide, and the plates centrifuged at 2000×g for 5 minutes. The method is then run and masses of each individual well recorded.
The masses (for which integration data is desired) for each well are pasted into the platemap and exported from the analysis. Masses for the internal standards are exported as well. The data at 50 ppm is extracted for the +19 charge state, and identity of well A1 is assigned using the internal standard spike and integrated. Peak data is exported as a TOF list and the above steps are repeated individually, for the +20, 21, 22, 23, 24, and charge states.

[1] = Binding activity determined at 24 hrs, Table 8a
[2] = Binding activity determined at 2 hrs, Table 8b
[3] = Binding activity determined at 24 hrs, Table 7a

T1 sequence (P01116 1-169 isoform P01116-2 G12C): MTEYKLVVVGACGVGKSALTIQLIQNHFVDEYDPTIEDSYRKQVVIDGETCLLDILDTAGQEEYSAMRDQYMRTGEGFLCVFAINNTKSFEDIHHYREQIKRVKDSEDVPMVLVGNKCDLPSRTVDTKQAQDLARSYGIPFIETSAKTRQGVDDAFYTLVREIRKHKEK

SMILES | Binding % [1] | other results
C=CC(=O)N1CCN(C(=O)c2cc(Cl)c(Cl)cc2O)CC1 [VI-8, 1-(4-(4,5-dichloro-2-hydroxybenzoyl)piperazin-1-yl)prop-2-en-1-one] | + (+ indicates binding activity from 5% to 10%) | 
COc1cc(Cl)c(-c2ccccc2Cl)cc1C(=O)N1CCN(C(=O)/C=C/CN(C)C)CC1 [VI-10, (E)-1-(4-(2′,6-dichloro-4-methoxybiphenyl-carbonyl)piperazin-1-yl)-4-(dimethylamino)but-2-en-1-one] | + (+ indicates binding activity from 5% to 10%) | 
C=CC(=O)N1CCN(C(=O)c2cc(-c3ccc(Cl)cc3)c(Cl)cc2O)CC1C#N (stereo not drawn) [VI-37, 1-Acryloyl-4-(4′,6-dichloro-4-hydroxy-[1,1′-biphenyl]-3-carbonyl)piperazine-2-carbonitrile] |  | Binding % [2]: ++ (++ indicates binding activity greater than 20%)
C=CC(=O)N1CCN(C(=O)c2cc(-c3cc(F)ccc3Cl)c(Cl)cc2OC)CC1 [VI-4, 1-(4-(2′,6-dichloro-5′-fluoro-4-methoxybiphenyl-carbonyl)piperazin-1-yl)prop-2-en-1-one] | ++ (++ indicates binding activity greater than 10% and up to 20%) | 
C=CC(=O)N1CCN(C(=O)c2cc(-c3cc(Cl)ccc3Cl)c(Cl)cc2O)CC1C#N (stereo not drawn) [VI-38, 1-acryloyl-4-(2′,5′,6-trichloro-4-hydroxybiphenyl-carbonyl)piperazine-2-carbonitrile] |  | Binding % [2]: ++ (++ indicates binding activity greater than 20%)
C=CC(=O)N1CC(N2CCN(CCNc3cc(Cl)c(Cl)cc3O)CC2)C1 [Compound V-15, 1-(3-(4-(2-(4,5-dichloro-2-hydroxyphenyl-amino)ethyl)piperazin-1-yl)azetidin-1-yl)prop-2-en-1-one] |  | Binding % [3]: + (+ indicates binding activity from 5% to 15%)
C=CC(=O)NC1CN(C(=O)c2cc(-c3ccccc3Cl)c(Cl)cc2O)C1 [VI-13, N-(1-(2′,6-dichloro-4-hydroxybiphenyl-carbonyl)azetidin-3-yl)acrylamide] | + (+ indicates binding activity from 5% to 10%) | 
C=CS(=O)(=O)N[C@H]1CCCN(C(=O)c2ccc(Cl)c(Cl)c2)C1 [VI-35, (S)-N-(1-(3,4-dichlorobenzoyl)piperidin-3-yl)ethenesulfonamide] | ++ (++ indicates binding activity greater than 10% and up to 20%) | 
C=CC(=O)N1CC(NC(=O)c2cc(-c3ccccc3Cl)[nH]n2)C1 [VI-14, N-(1-acryloylazetidin-3-yl)-3-(2-chlorophenyl)-1H-pyrazole-5-carboxamide] | + (+ indicates binding activity from 5% to 10%) | 
C=CC(=O)N1CC(N2CCN(C(=O)NCc3cc(Br)c(Cl)cc3O)CC2)C1 [Compound V-66, 4-(1-acryloylazetidin-3-yl)-N-(5-bromo-4-chloro-2-hydroxybenzyl) piperazine-1-carboxamide] |  | Binding % (Binding activity determined at 2 hrs, Table 7b): + (+ indicates binding activity from 5% to 20%)
C=CS(=O)(=O)NC1CCN(C(=O)c2ccc(Cl)c(Cl)c2)CC1 [VI-33, N-(1-(3,4-dichlorobenzoyl)piperidin-4-yl)ethenesulfonamide] | + (+ indicates binding activity from 5% to 10%) | 
C=CC(=O)N1CCN(C(=O)c2ccc(Cl)c(-c3ccccc3Cl)c2)CC1 [VI-12, 1-(4-(2′,6-dichlorobiphenyl-carbonyl)piperazin-1-yl)prop-2-en-1-one] | +++ (+++ indicates binding activity greater than 20% and up to 30%) | 
C=CC(=O)N1CCN(C2CCN(C(=O)CNc3cc(Cl)c(Cl)cc3O)C2)CC1 (stereo not drawn) [Compound V-4, 1-(4-(1-(2-(4,5-dichloro-2-hydroxyphenyl-amino)acetyl)pyrrolidin-3-yl)piperazin-1-yl)prop-2-en-1-one] |  | Binding % [3]: +++ (+++ indicates binding activity greater than 25% and up to 50%)
C=CC(=O)N1CCN(C(=O)c2cc(-c3cccs3)[nH]n2)CC1 [VI-16, 1-(4-(5-(thiophen-2-yl)-1H-pyrazole-3-carbonyl)piperazin-1-yl)prop-2-en-1-one] | + (+ indicates binding activity from 5% to 10%) | 
C=CC(=O)N1CCN(C(=O)c2ccc(Cl)c(Cl)c2)CC1 [VI-36, 1-(4-(3,4-dichlorobenzoyl)piperazin-1-yl)prop-2-en-1-one] | + (+ indicates binding activity from 5% to 10%) | 
C=CC(=O)N1CCN(C(=O)c2csc(-c3ccccc3Cl)n2)CC1 [VI-18, 1-(4-(2-(2-chlorophenyl)thiazole-4-carbonyl)piperazin-1-yl)prop-2-en-1-one] | + (+ indicates binding activity from 5% to 10%) | 
C=CC(=O)N1CCN(C(=O)c2cc(-c3cc(Cl)ccc3Cl)c(Cl)cc2O)CC1 [VI-17, 1-(4-(2′,5′,6-trichloro-4-hydroxybiphenyl-carbonyl)piperazin-1-yl)prop-2-en-1-one] | ++++ (++++ indicates binding activity greater than 30%) | 
C=CC(=O)N1CCN(C(=O)c2cc(O)cc(-c3ccccc3Cl)c2)CC1 [VI-25, 1-(4-(2′-Chloro-5-hydroxy-[1,1′-biphenyl]-3-carbonyl)piperazin-1-yl)prop-2-en-1-one] | +++ (+++ indicates binding activity greater than 20% and up to 30%) | 
C=CC(=O)N1CCN(C(=O)c2cc(-c3ccccc3Cl)c[nH]2)CC1 [VI-21, 1-(4-(4-(2-chlorophenyl)-1H-pyrrole-2-carbonyl)piperazin-1-yl)prop-2-en-1-one] | ++ (++ indicates binding activity greater than 10% and up to 20%) | 
C=CC(=O)N1CCN(C(=O)c2cc(-c3ccccc3Cl)c(Cl)cc2O)CC1 [VI-3, 1-(4-(2′,6-Dichloro-4-hydroxy-[1,1′-biphenyl]-3-carbonyl)piperazin-1-yl)prop-2-en-1-one] | ++++ (++++ indicates binding activity greater than 30%) | 
C=CC(=O)N1CCN(C(=O)c2cc(-c3ccccc3Cl)ccc2O)CC1 [VI-26, 1-(4-(2′-chloro-4-hydroxybiphenyl-carbonyl)piperazin-1-yl)prop-2-en-1-one] | ++ (++ indicates binding activity greater than 10% and up to 20%) | 
C=CC(=O)N1CCN(C(=O)c2cc(-c3ccccc3Cl)c(C)[nH]2)CC1 [VI-23, 1-(4-(4-(2-chlorophenyl)-5-methyl-1H-pyrrole-2-carbonyl)piperazin-1-yl)prop-2-en-1-one] | +++ (+++ indicates binding activity greater than 20% and up to 30%) | 
C=CC(=O)N1CCN(C(=O)c2cc(O)c(Cl)c(-c3ccccc3Cl)c2)CC1 [VI-27] | +++ (+++ indicates binding activity greater than 20% and up to 30%) | 
C=CC(=O)NC1CN(C(=O)c2cc(-c3ccccc3Cl)[nH]n2)C1 [VI-15, N-(1-(3-(2-chlorophenyl)-1H-pyrazole-5-carbonyl)azetidin-3-yl)acrylamide] | + (+ indicates binding activity from 5% to 10%) | 
C=CC(=O)N1CCN(C(=O)c2cc(-c3cc(Cl)ccc3Cl)c(Cl)cc2OC)CC1 [VI-5, 1-(4-(2′,5′,6-trichloro-4-methoxybiphenyl-carbonyl)piperazin-1-yl)prop-2-en-1-one] | ++++ (++++ indicates binding activity greater than 30%) | 
C=CC(=O)N1CCN(C(=O)c2cc(-c3ccccc3Cl)c(Cl)[nH]2)CC1 [VI-30, 1-(4-(5-chloro-4-(2-chlorophenyl)-1H-pyrrole-2-carbonyl)piperazin-1-yl)prop-2-en-1-one] | ++ (++ indicates binding activity greater than 10% and up to 20%) | 
C=CC(=O)N1CCN(C(=O)c2cc(Cl)c(-c3ccccc3Cl)cc2O)CC1 [VI-41, 1-(4-(2,2′-dichloro-5-hydroxybiphenyl-carbonyl)piperazin-1-yl)prop-2-en-1-one] |  | Binding % [2]: + (+ indicates binding activity from 5% to 20%)
